Source: patent US12662473B2, “Inhibitors for programmed cell necrosis and preparation method therefor and use thereof” (SHANGHAI INSTITUTE OF ORGANIC CHEMISTRY, CHINESE ACADEMY OF …, priority 2019, dated 2026)
Like-named read-outs stand apart in the source and are kept apart here.

Experiments:
FADD−/− Jurkat cells = test: TNF-induced programmed cell necrosis inhibition, Cell Titer-Glo viability; type: cell-based; conditions: Homo sapiens, Jurkat
Procedure, shortened: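 FADD-deficient Jurkat cells (2.5×10^5/mL) were pretreated 1 h at 37 °C with compound plus Smac (50 nM as added), then stimulated with TNFα (50 ng/mL as added) for 14 h at 37 °C, 5% CO2. Viability was measured as ATP by CellTiter-Glo luminescence, with unstimulated DMSO wells as 100%. EC50 values were derived.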

RIPK1 (S161E) = test: Effect of RIPK1 S161E mutation on compound activity (S161E MEFs western blot and cell death with TNFα and 5z7); type: cell-based, mouse; conditions: FIG. 6
Protocol: The biological test protocol used in this experiment was to test the effect of serine mutation at position 161 of RIPK1 to glutamic acid on the activity of the compound. The experiment was verified by two aspects. On the one hand, the mouse-derived MEFs cells in which RIPK1 (S161E) was put back after knocking out RIPK1 were treated with the compound of the present invention, and the phosphorylation state of RIPK1 was detected by western-blot; on the other hand, whether the compounds of the present invention have inhibitory effect on RIPK1-dependent apoptosis in the above-mentioned S161E cells was detected.
1. S161E MEFs cells were digested, and then diluted to 1.5×10^5/ml, and the cells were seeded into 6-well plates with 2 ml per well. The plate was placed in a cell incubator (37° C., 5% CO2) for 12 hours. 0.4 μL of compound 4-8 (50 mM in DMSO) or 0.4 μL of Nec-1s (50 μM in DMSO) was added to the wells respectively, 0.4 μL of DMSO was added to the control group. […] The BCA protein quantification kit was used to detect the protein content of each group, and PIPA lysis buffer was used to adjust the protein amount to make the final volume of 100 μL. […] The cells were incubated at room temperature for 30 min, and the luminescence value was detected to measure the level of intracellular ATP. […]

L929 cells = test: TNF-induced programmed cell necrosis inhibition, Cell Titer-Glo viability; type: cell-based, mouse; conditions: Mus musculus, read-out: EC50 inhibitory activity on programmed cell necrosis
Procedure, shortened: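 L929 mouse fibroblasts were pretreated 1 h at 37 °C with compound plus Smac (500 nM solution added), then stimulated with TNFα (500 ng/mL solution added) for 14 h. Viability was read as ATP by CellTiter-Glo luminescence, with unstimulated DMSO wells set to 100%, and EC50 values were calculated.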

[1] = 14 h, TNFa + SM164, read-out: EC50 inhibitory activity on programmed cell necrosis
[2] = TNFa, read-out: EC50 inhibitory activity on programmed cell necrosis
[3] = L929, 14 h, L929 cells (mouse), TNFa + SM164

| Structure (SMILES) | EC50 (FADD−/− Jurkat cells; [1]) [µM] | EC50 (FADD−/− Jurkat cells; [2]) [µM] | inhibition of programmed cell necrosis after mutation of serine 161 of RIPK1 to glutamic acid (RIPK1 (S161E)) | EC50 (L929 cells; [3]) [µM] | EC50 (L929 cells; L929, L929 cells (mouse), TNFa) [µM] |
| --- | --- | --- | --- | --- | --- |
| Cc1ccc(C2CCCN2C(=O)C(C)(C)Oc2ccc(Cl)cc2)cc1 (stereo not drawn) [QY-4-8] | 0.568 | 0.091 | can still inhibit the programmed cells necrosis | 0.139 | 0.05 |
| Cc1ccc(C2CCCN2C(=O)C(C)(C)C(=O)N2CCC(C)CC2)cc1 (stereo not drawn) [QY-14-8] | > 10 | > 10 | – | > 10 | > 10 |
| Cc1ccc(C2CCCN2C(=O)C(C)(C)C(=O)N2CCN(C)CC2)cc1 (stereo not drawn) [QY-14-9] | > 10 | > 10 | – | > 10 | > 10 |
| Cc1ccc(C2CCCN2C(=O)C(C)(C)Oc2cccc(C(N)=O)c2)cc1 (stereo not drawn) [QY-14-17] | > 10 | > 10 | – | > 10 | > 10 |
| Cc1ccc(C2CCCN2C(=O)C(C)(C)Oc2cccc(C#N)c2)cc1 (stereo not drawn) [QY-14-24] | 0.939 | 0.022 | – | 0.066 | 0.0154 |
| CNC(=O)c1cccc(OC(C)(C)C(=O)N2CCCC2c2ccc(C)cc2)c1 (stereo not drawn) [QY-14-25] | > 10 | > 10 | – | > 10 | > 10 |
| Cc1ccc(C2CCCN2C(=O)C(C)(C)Oc2cc(C(N)=O)ncn2)cc1 (stereo not drawn) [QY-14-27] | > 10 | > 10 | – | > 10 | 8.45 |
| Cc1ccc(C2CCCN2C(=O)C(C)(C)C(=O)N2CCCC2)cc1 (stereo not drawn) [QY-14-29] | > 10 | > 10 | – | > 10 | > 10 |
| Cc1ccc(C2CCCN2C(=O)C(C)(C)C(=O)n2cccn2)cc1 (stereo not drawn) [QY-14-30] | > 10 | > 10 | – | > 10 | 4.89 |
| Cc1ccc(C2CCCN2C(=O)C(C)(C)C(=O)N2CCNC(=O)C2)cc1 (stereo not drawn) [QY-14-31] | > 10 | > 10 | – | > 10 | > 10 |
| Cc1ccc(C2CCCN2C(=O)C(C)(C)C(=O)N2CCNCC2)cc1 (stereo not drawn) [QY-14-33] | > 10 | > 10 | – | > 10 | > 10 |
| Cc1ccc(C2CCCN2C(=O)C(C)(C)Oc2ccc(C(N)=O)cc2)cc1 (stereo not drawn) [QY-14-34] | > 10 | 2.36 | – | > 10 | 0.816 |
| Cc1ccc(C2CCCN2C(=O)C(C)(C)Oc2cc(C#N)ncn2)cc1 (stereo not drawn) [QY-14-35] | > 10 | > 10 | – | > 10 | > 10 |
| COc1cc(Cl)ccc1OC(C)(C)C(=O)N1N=CCC1c1cncc(F)c1 (stereo not drawn) [QY-14-40] | > 10 | > 10 | – | > 10 | > 10 |
| Cc1ccc(C2CCCN2C(=O)C(C)(C)C(=O)N2CCCCC2)cc1 (stereo not drawn) [QY-14-44] | > 10 | > 10 | – | > 10 | > 10 |
| Cc1ccc(C2CCCN2C(=O)C(C)(C)Oc2ccc(C#N)c(C#N)c2)cc1 (stereo not drawn) [QY-14-59] | > 10 | 4.57 | – | > 10 | 0.467 |
| Cc1ccc(C2CCCN2C(=O)C(C)(C)Oc2ccc(Cl)c(C#N)c2)cc1 (stereo not drawn) [QY-14-60] | 1.62 | 0.283 | – | 0.497 | 0.141 |
| C#Cc1ccc(OC(C)(C)C(=O)N2CCCC2c2ccc(C)cc2)cc1 (stereo not drawn) [QY-14-68] | 0.18 | 0.0173 | – | 0.102 | 0.021 |
| Cc1ccc(C2CCCN2C(=O)C(C)(C)Oc2ccc(C#CC(C)(C)O)cc2)cc1 (stereo not drawn) [QY-15-11] | > 10 | > 10 | – | > 10 | 2.84 |
| Cc1ccc(C2CCCN2C(=O)C(C)(C)Oc2ccc(C#Cc3cccnc3)cc2)cc1 (stereo not drawn) [QY-15-12] | > 10 | > 10 | – | > 10 | 5.16 |
| Cc1ccc(C2CCCN2C(=O)C(C)(C)Oc2ccc(C#CC3CCNCC3)cc2)cc1 (stereo not drawn) [QY-15-31] | > 10 | 0.818 | – | > 10 | 0.0824 |
| [2H]C([2H])([2H])c1ccc(C2CCCN2C(=O)C(C)(C)Oc2ccc(Cl)cc2F)cc1 (stereo not drawn) [XHJ-3-22] | 1.46 | – | – | 0.302 | 0.04 |
| CC(C)(Oc1ccc(Cl)cc1F)C(=O)N1N=CCC1c1ccccc1 (stereo not drawn) [ZSQ13-56, 2-(4-Chloro-2-fluorophenoxy)-2-methyl-1-(5-phenyl-4,5-dihydro-1H-pyrazol-1-yl)propan-1-one] | 0.424 | 0.049 | – | 0.201 | 0.028 |
| CC(C)(Oc1ccc(Cl)cc1F)C(=O)N1N=CCC1c1ccc(F)cc1 (stereo not drawn) [ZSQ13-57] | 0.37 | 0.026 | – | 0.112 | 0.01 |
